Consider 13 compounds from patent US7342012B2, “Inhibitors of αLβ2 mediated cell adhesion” (Mitsubishi Tanabe Pharma Corporation, priority 1999, dated 2008).

`CCCCC(=O)N[C@@H]1CN2C(=O)N(c3cc(Cl)nc(Cl)c3)C(=O)[C@@]2(Cc2ccc(OC(F)(F)F)cc2)C1` [Example 286, (5R, 7S)-5-[4-(Trifluoromethoxy)benzyl]-3-(2,6-dichloro-4-pyridyl)-7-valerylamino-1,3-diazabicyclo[3.3.0]octane-2,4-dione] returned a melting point of 66.8 °C.
Then `O=C(O)c1cc(C(=O)O)cc(N2C(=O)N3CCCC3(Cc3ccc(Br)cc3)C2=O)c1` (stereo not shown) [Example 236], with 259 °C (dec.); and `COC(=O)N1CCCC2(Cc3ccc(Br)cc3)C(=O)N(c3cc(Cl)nc(Cl)c3)C(=O)N12` (stereo not shown) [Example 102, 6-(4-Bromobenzyl)-8-(2,6-dichloro-4-pyridyl)-2-methoxycarbonyl-1,2,8-triazabicyclo[4.3.0]nonane-7,9-dione], with 81 °C.
Regarding `COC(=O)C=C1CN2C(=O)N(c3cc(Cl)cc(Cl)c3)C(=O)C2(Cc2ccc(Br)cc2)C1` (stereo not shown) [Example 36, 5-(4-Bromobenzyl)-3-(3,5-dichlorophenyl)-7-methoxycarbonylmethylene-1,3-diazabicyclo[3.3.0]octane-2,4-dione], the melting point was 74.9 °C.
On to `O=C1CN2C(=O)N(c3cc(Cl)cc(Cl)c3)C(=O)C2(Cc2ccc(Br)cc2)C1` (stereo not shown) [Example 35, 5-(4-Bromobenzyl)-3-(3,5-dichlorophenyl)-1,3-diazabicyclo[3.3.0]octane-2,4,7-trione], for which the melting point turned out to be 85.4 °C.
Then `CC(=O)N[C@@H]1CN2C(=O)N(c3cc(Cl)cc(Cl)c3)C(=O)[C@@]2(Cc2ccc(Br)cc2)C1` [Example 48, (5R,7S)-5-(4-Bromobenzyl)-3-(3,5-dichlorophenyl)-7-acetamido-1,3-diazabicyclo[3.3.0]octane-2,4-dione], with 140.7 °C; and `O=C1N(c2cc(Cl)c(OCc3ccccc3)c(Cl)c2)C(=O)C2(Cc3ccc(Br)cc3)CCCN12` (stereo not shown) [Example 138, 5-(4-Bromobenzyl)-3-[3,5-dichloro-4-(benzyloxy)phenyl]-1,3-diazabicyclo[3.3.0]octane-2,4-dione], with 62 °C.
Compound `O=C1N(c2cc(Cl)cc(Cl)c2)C(=O)[C@]2(Cc3ccc(Br)cc3)C[C@@H](O)CN12` [Example 2, (5S, 7R)-5-(4-Bromobenzyl)-3-(3,5-dichlorophenyl)-7-hydroxy-1,3-diazabicyclo[3.3.0]octane-2,4-dione] registered a melting point of 136.1 °C.
The value for `N#Cc1ccc(CC23CCCN2C(=O)N(Cc2cc(Cl)cc(Cl)c2)C3=O)cc1` (stereo not shown) [Example 106, 5-(4-Cyanobenzyl)-3-(3,5-dichlorobenzyl)-1,3-diazabicyclo[3.3.0]octane-2,4-dione] was 124 °C; that for `COC(=O)c1ccc(CC23CCCN2C(=O)N(c2cc(Cl)c(O)c(Cl)c2)C3=O)cc1` (stereo not shown) [Example 142, 5-(4-Methoxycarbonylbenzyl)-3-(3,5-dichloro-4-hydroxyphenyl)-1,3-diazabicyclo[3.3.0]octane-2,4-dione] was 105.3 °C; that for `[N-]=[N+]=N[C@@H]1CN2C(=O)N(c3cc(Cl)nc(Cl)c3)C(=O)[C@@]2(Cc2ccc(OC(F)(F)F)cc2)C1` [Example 62, (5R,7S)-5-[4-(Trifluoromethoxy)benzyl]-3-(2,6-dichloro-4-pyridyl)-7-azido-1,3-diazabicyclo[3.3.0]octane-2,4-dione] was 139.9 °C.
Then `CC(=O)Nc1ccc(-c2ccc(CC34CCCN3C(=O)N(c3cc(Cl)cc(Cl)c3)C4=O)cc2)cc1` (stereo not shown) [Example 116, 5-[4-(4-Acetylaminophenyl)benzyl]-3-(3,5-dichlorophenyl)-1,3-diazabicyclo[3.3.0]octane-2,4-dione], with 123.9 °C; and `COC(=O)/C=C/c1cccc(-c2ccc(CC34CCCN3C(=O)N(c3cc(Cl)cc(Cl)c3)C4=O)cc2)c1` (stereo not shown) [Example 224, (E)-5-[4-[3-(2-Methoxycarbonyl)vinylphenyl]benzyl]-3-(3,5-dichlorophenyl)-1,3-diazabicyclo[3.3.0]octane-2,4-dione], with 71.3 °C.

Broadly, the melting point is the temperature, or range, at which the solid turns liquid.
